Results: patent US11732286B2, “T5 exonuclease-based method to identify DNA topoisomerase inhibitors” (The Florida International University Board of Trustees, priority 2020, dated 2023)
pIC50: −log10 of the molar value. Entries after “also recorded” stand apart in the source; their conditions may differ. Where a name gives a salt, the structure may show the parent alone. Read-outs that look alike come from different tables or passages of the source. Where a SMILES comes first, the peptide text is derived from it. Bridges are numbered along the chain shown (N, C = ends). [ ]: non-standard residue; d: D form. The star is where a group is joined. Octanoyl(6-Me) = CCC(C)CCCCC(=O)*; Dab = NCC[CH](N)C(=O)O

Legend:
E. coli DNA gyrase = E. coli DNA gyrase (Escherichia coli, UniProt P0AES4+P0AES6); assay type: biochemical; details: for hit call, gyrase HTS (FIG. 7): 20 μM, triplicate, Z′ 0.64, S/B 4.3; for result in words, pathogen box screen for E. coli DNA gyrase: 400 compounds, several rounds of screening
[1] = target: variola virus DNA topoisomerase 1 (vTopI) (Variola virus, UniProt P32989); assay type: biochemical; details: for screening result in words (Variola topo I HTS): interpretation of Table 6
Mtb DNA topoisomerase I = Mtb DNA topoisomerase I (Mycobacterium tuberculosis, UniProt P9WG49); assay type: biochemical; details: for screening result in words (Mtb topo I HTS): interpretation of Table 4
[2] = target: E. coli DNA topoisomerase I (Escherichia coli, UniProt P06612); assay type: biochemical; details: for screening result in words (E. coli topo I HTS): interpretation of Table 5 / FIG. 11
[3] = target: T1, human DNA topoisomerase I (HuTopI) (Homo sapiens, UniProt P11387); assay: Human TopI-catalyzed DNA relaxation of sc pAB1_FL905 (fluorescence, FIG. 14); assay type: biochemical; details: 25 nM huTopI, sc pAB1_FL905, λem=521 nm, λex=482 nm; read-out: IC50 for inhibition of HuTopI activities
T1 sequence (P11387 1-765): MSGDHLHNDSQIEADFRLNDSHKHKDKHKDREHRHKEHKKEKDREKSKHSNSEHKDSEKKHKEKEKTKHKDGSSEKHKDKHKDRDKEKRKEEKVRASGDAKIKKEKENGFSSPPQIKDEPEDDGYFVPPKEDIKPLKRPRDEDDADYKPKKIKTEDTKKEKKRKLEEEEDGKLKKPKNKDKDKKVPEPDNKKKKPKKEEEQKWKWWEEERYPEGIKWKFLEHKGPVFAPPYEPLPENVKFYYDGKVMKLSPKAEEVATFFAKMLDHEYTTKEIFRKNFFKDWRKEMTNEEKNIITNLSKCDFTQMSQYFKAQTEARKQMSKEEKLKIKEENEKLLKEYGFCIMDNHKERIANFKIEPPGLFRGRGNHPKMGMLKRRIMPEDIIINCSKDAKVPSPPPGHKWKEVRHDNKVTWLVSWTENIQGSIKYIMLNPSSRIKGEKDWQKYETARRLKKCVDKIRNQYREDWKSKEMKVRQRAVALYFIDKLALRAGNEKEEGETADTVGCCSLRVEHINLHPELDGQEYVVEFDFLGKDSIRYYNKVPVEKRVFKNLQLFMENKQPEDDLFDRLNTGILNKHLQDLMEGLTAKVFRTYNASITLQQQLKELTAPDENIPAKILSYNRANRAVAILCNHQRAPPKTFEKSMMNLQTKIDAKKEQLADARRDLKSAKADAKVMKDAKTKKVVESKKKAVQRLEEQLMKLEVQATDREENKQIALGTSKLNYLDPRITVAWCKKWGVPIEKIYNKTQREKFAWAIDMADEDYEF

MtbTopI = MtbTopI (Mycobacterium tuberculosis, UniProt P9WG49); assay: MtbTopI inhibition test of FIG. 14; assay type: biochemical
supercoiled plasmid pAB1 = assay: T5 exonuclease-based HTS assay for DNA intercalators (sc pAB1, no topoisomerase)

Sequence of variola virus DNA topoisomerase 1 (vTopI) (P32989 whole entry, looked up): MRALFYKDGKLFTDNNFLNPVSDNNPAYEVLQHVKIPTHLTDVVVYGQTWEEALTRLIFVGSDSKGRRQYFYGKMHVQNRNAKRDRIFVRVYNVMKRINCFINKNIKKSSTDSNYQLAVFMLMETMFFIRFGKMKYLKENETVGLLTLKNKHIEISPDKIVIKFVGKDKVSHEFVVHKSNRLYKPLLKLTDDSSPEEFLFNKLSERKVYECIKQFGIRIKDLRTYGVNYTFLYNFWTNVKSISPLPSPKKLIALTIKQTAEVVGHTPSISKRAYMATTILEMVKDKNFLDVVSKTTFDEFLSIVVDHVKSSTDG
Sequence of E. coli DNA topoisomerase I (P06612 whole entry): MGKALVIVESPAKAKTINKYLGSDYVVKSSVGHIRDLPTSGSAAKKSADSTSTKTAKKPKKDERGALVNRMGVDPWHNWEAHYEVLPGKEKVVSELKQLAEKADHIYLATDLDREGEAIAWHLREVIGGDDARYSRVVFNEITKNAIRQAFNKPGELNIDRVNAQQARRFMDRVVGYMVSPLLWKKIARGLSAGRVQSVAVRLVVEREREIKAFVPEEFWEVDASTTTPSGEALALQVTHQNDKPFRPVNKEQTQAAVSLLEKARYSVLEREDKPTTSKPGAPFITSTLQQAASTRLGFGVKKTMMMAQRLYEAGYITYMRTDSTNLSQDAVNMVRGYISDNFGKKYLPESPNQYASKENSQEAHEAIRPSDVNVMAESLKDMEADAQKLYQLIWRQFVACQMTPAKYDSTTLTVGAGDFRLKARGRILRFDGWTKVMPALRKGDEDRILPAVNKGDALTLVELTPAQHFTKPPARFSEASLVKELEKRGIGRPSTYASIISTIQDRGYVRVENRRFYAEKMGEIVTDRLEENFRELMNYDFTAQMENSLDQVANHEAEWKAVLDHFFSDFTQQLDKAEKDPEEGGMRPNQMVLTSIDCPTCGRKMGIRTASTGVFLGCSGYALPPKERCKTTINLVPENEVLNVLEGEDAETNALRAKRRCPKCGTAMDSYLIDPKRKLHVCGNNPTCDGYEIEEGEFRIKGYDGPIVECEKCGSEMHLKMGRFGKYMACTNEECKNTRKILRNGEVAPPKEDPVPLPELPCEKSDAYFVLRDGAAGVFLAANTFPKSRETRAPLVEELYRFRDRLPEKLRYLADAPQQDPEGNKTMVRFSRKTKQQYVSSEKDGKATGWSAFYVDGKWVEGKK
Sequence of E. coli DNA gyrase (P0AES4 whole entry, one chain of several): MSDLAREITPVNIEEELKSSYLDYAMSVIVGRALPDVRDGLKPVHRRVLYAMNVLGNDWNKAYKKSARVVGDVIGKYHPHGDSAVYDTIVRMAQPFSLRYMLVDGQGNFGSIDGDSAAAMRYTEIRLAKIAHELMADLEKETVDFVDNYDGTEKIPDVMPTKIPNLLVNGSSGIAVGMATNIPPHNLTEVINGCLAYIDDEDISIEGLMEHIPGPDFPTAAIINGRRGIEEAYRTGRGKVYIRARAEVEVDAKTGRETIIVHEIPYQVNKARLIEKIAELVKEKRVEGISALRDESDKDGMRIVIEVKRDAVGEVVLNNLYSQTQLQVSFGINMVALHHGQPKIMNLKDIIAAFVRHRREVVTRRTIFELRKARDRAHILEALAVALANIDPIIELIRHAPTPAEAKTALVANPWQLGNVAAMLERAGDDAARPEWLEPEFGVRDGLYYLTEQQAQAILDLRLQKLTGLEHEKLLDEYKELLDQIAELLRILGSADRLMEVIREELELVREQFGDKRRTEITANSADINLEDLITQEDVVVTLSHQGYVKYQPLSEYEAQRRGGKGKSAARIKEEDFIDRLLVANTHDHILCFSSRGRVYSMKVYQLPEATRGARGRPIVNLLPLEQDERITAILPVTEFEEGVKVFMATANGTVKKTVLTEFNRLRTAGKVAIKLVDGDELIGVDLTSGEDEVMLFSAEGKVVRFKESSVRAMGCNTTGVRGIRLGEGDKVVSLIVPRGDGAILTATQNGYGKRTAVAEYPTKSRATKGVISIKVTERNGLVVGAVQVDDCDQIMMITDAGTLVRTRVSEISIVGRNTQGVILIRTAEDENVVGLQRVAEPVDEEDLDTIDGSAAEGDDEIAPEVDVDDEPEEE
Sequence of Mtb DNA topoisomerase I (P9WG49 whole entry): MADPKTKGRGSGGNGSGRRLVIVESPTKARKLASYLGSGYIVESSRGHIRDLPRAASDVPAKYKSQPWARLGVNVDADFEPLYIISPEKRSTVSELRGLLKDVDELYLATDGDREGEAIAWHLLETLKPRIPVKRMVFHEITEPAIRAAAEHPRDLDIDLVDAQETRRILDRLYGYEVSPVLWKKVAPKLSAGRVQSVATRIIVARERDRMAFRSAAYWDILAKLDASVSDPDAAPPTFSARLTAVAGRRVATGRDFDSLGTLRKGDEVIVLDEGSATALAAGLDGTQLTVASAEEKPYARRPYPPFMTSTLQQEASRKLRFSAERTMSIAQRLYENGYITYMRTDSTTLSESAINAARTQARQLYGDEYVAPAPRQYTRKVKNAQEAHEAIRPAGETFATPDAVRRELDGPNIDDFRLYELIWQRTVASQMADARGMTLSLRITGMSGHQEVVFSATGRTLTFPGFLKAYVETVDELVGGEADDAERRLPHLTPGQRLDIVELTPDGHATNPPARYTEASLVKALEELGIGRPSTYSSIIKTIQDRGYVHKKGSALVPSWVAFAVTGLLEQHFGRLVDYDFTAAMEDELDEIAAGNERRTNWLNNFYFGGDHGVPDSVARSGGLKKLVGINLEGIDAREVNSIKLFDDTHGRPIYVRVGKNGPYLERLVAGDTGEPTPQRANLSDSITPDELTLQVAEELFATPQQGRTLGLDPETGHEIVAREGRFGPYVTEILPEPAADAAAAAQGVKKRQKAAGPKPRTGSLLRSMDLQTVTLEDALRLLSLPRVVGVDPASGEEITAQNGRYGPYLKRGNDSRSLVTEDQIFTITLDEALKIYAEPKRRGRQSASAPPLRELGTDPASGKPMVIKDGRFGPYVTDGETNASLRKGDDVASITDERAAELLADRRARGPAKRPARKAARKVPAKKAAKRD
Sequence of MtbTopI (P9WG49 whole entry): as above

Q: For `CCn1cc(C(=O)O)c(=O)c2cc(F)c(N3CCNC(C)C3)c(F)c21` (centres unmarked) [Lomefloxacin], which “screening result in words (Table 2, gyrase HTS)” value (E. coli DNA gyrase; interpretation of Table 2) is on record?
A: The value was “DNA intercalators”.

Q: For `CC[C@@]1(O)C(=O)OCc2c1cc1n(c2=O)Cc2cc3ccccc3nc2-1` [camptothecin], which “fluorescence, HTS screening of 50-compound library (Table 6; vTopI)” value (from here on “fluorescence, HTS screening … (Table 6; vTopI)”) [1] is on record?
A: The value was 1712.

Q: With `CCC(C)CCCCC(=O)NC(CCN)C(=O)NC(C(=O)NC(CCN)C(=O)NC1CCNC(=O)C(C(C)O)NC(=O)C(CCN)NC(=O)C(CCN)NC(=O)C(CC(C)C)NC(=O)C(Cc2ccccc2)NC(=O)C(CCN)NC1=O)C(C)O` (centres unmarked) [Polymyxin B sulfate salt] ({Octanoyl(6-Me)}-[Dab]T[Dab][Dab][Dab]FL[Dab][Dab]T; lactam 4-C; configuration not given here) as the molecule, how does the “fluorescence, HTS screening … (Table 6; vTopI)” value [1] read?
A: The value was 1744.

Q: For `CCOc1ccc2nc3cc(N)ccc3c(N)c2c1` [ethacridine], which “hit call, gyrase HTS (FIG. 7)” value (E. coli DNA gyrase) is on record?
A: Its value is “hits”.

Q: What about the “screening result in words (Table 2, gyrase HTS)” value (E. coli DNA gyrase; interpretation of Table 2) of the same molecule?
A: The value was “DNA intercalators”.

Q: With `CC[C@@]1(O)C(=O)OCc2c1cc1n(c2=O)Cc2cc3c(CN(C)C)c(O)ccc3nc2-1` [topotecan] as the molecule, how does the “screening result in words (Mtb topo I HTS)” value (Mtb DNA topoisomerase I) read?
A: Its value is “new Mtb DNA topI inhibitors; also recorded: can inhibit Mtb topo I”.

Q: How did the “fluorescence, HTS screening of 50-compound library for E. coli DNA gyrase inhibitors” value (shortened to “fluorescence … for E. coli DNA gyrase inhibitors”) (E. coli DNA gyrase) turn out when `NC[C@H]1O[C@H](O[C@H]2[C@H](O)[C@@H](O[C@H]3O[C@H](CO)[C@@H](O)[C@H](N)[C@H]3O)[C@H](N)C[C@@H]2N)[C@H](O)[C@@H](O)[C@@H]1O` [kanamycin] was run?
A: Its value is 510.

Q: What about the “fluorescence, HTS screening of 50-compound library for Mtb DNA topoisomerase 1 inhibitors” value (Mtb DNA topoisomerase I) of the same molecule?
A: The value was 1466.

Q: And the “fluorescence, HTS screening of 50-compound library for E. coli DNA topoisomerase 1 inhibitors” value [2]?
A: Its value is 1719.

Q: Which “fluorescence, HTS screening … (Table 6; vTopI)” value [1] does the source give for citrinin here?
A: Its value is 1311.

Q: How did the “fluorescence … for E. coli DNA gyrase inhibitors” value (E. coli DNA gyrase) turn out when `Cc1ncc(C[n+]2csc(CCO)c2C)c(N)n1` [Vitamine B1] was run?
A: The value was 467.

Q: What about the “fluorescence, HTS screening of 50-compound library for Mtb DNA topoisomerase 1 inhibitors” value (Mtb DNA topoisomerase I) of the same molecule?
A: The value was 1224.

Q: And the “fluorescence, HTS screening of 50-compound library for E. coli DNA topoisomerase 1 inhibitors” value [2]?
A: Its value is 1441.

Q: What does the source list for `Cc1ccc(C(=O)Nc2ccc(S(=O)(=O)O)c3cc(S(=O)(=O)O)cc(S(=O)(=O)O)c23)cc1NC(=O)c1cccc(NC(=O)Nc2cccc(C(=O)Nc3cc(C(=O)Nc4ccc(S(=O)(=O)O)c5cc(S(=O)(=O)O)cc(S(=O)(=O)O)c45)ccc3C)c2)c1` [suramin]?
A: hit call, gyrase HTS (FIG. 7) (E. coli DNA gyrase): hits; screening result in words (Table 2, gyrase HTS) (E. coli DNA gyrase; interpretation of Table 2): DNA intercalators; screening result in words (Mtb topo I HTS) (Mtb DNA topoisomerase I): can inhibit Mtb topo I; screening result in words (E. coli topo I HTS) [2]: can inhibit E. coli topo I; screening result in words (Variola topo I HTS) [1]: can inhibit Variola topo I

Q: `O=C1C=C(NCCc2cc(Br)c(O)c(Br)c2)C(=O)c2ncccc21` [NSC668394] was tested. Which “screening result in words (Mtb topo I HTS)” value (Mtb DNA topoisomerase I) did it give?
A: The value was “new Mtb DNA topI inhibitors; also recorded: can inhibit Mtb topo I”.

Q: And the “screening result in words (E. coli topo I HTS)” value [2]?
A: Its value is “new E. coli DNA Topo I inhibitor; also recorded: can inhibit E. coli topo I”.

Q: What about the pIC50 [3] of the same molecule?
A: Its pIC50 is 5.30.

Q: What about the “inhibition of MtbTopI in words (FIG. 14B and D)” value (MtbTopI) of the same molecule?
A: The value was “did not inhibit”.

Q: With `CN[C@H](CC(C)C)C(=O)N[C@H]1C(=O)N[C@@H](CC(N)=O)C(=O)N[C@H]2C(=O)N[C@H]3C(=O)N[C@H](C(=O)N[C@H](C(=O)O)c4cc(O)cc(O)c4-c4cc3ccc4O)[C@H](O)c3ccc(c(Cl)c3)Oc3cc2cc(c3O[C@@H]2O[C@H](CO)[C@@H](O)[C@H](O)[C@H]2OC2C[C@](C)(N)[C@H](O)[C@H](C)O2)Oc2ccc(cc2Cl)[C@H]1O` (some centres unmarked) [Vancomycin] as the molecule, how does the “fluorescence, HTS screening … (Table 6; vTopI)” value [1] read?
A: The value was 1398.

Q: With `NCCCC[C@H](N)C(=O)O` [L-lysine] as the molecule, how does the “fluorescence, HTS screening … (Table 6; vTopI)” value [1] read?
A: Its value is 1028.

Q: Which results are given for `CCN1CCN(c2cc3c(cc2F)c(=O)c(C(=O)O)cn3C2CC2)CC1` [Enrofloxacin]?
A: screening result in words (Table 2, gyrase HTS) (E. coli DNA gyrase; interpretation of Table 2): DNA intercalators; screening result in words (Variola topo I HTS) [1]: can inhibit Variola topo I

Q: Which results are given for `O=C(O)c1cn(C2CC2)c2cc(N3CCNCC3)c(F)cc2c1=O` [Ciprofloxacin]?
A: fluorescence, HTS screening of 50-compound library for E. coli DNA gyrase inhibitors (E. coli DNA gyrase): 1803; screening result in words (Table 2, gyrase HTS) (E. coli DNA gyrase): DNA intercalators; fluorescence, HTS screening of 50-compound library for Mtb DNA topoisomerase 1 inhibitors (Mtb DNA topoisomerase I): 1493; fluorescence, HTS screening of 50-compound library for E. coli DNA topoisomerase 1 inhibitors [2]: 1191

Q: What does the source list for `C[C@H]1COc2c(N3CCN(C)CC3)c(F)cc3c(=O)c(C(=O)O)cn1c23` [Levofloxacin]?
A: screening result in words (Table 2, gyrase HTS) (E. coli DNA gyrase; interpretation of Table 2): DNA intercalators; result in words, pathogen box screen for E. coli DNA gyrase (E. coli DNA gyrase): inhibit E. coli DNA gyrase activities

Q: Which “screening result in words (Mtb topo I HTS)” value (Mtb DNA topoisomerase I) does the source give for `CCCCCCCCOC(=O)c1cc(O)c(O)c(O)c1` [NSC97419] here?
A: The value was “new Mtb DNA topI inhibitors; also recorded: can inhibit Mtb topo I”.

Q: What about the “screening result in words (E. coli topo I HTS)” value [2] of the same molecule?
A: The value was “can inhibit E. coli topo I”.

Q: What about the “screening result in words (Variola topo I HTS)” value [1] of the same molecule?
A: Its value is “can inhibit Variola topo I”.

Q: For `CCn1cc(C(=O)O)c(=O)c2cc(F)c(N3CCNCC3)cc21` [Norfloxacin], which “screening result in words (Table 2, gyrase HTS)” value (E. coli DNA gyrase; interpretation of Table 2) is on record?
A: The value was “DNA intercalators”.

Q: Which “fluorescence … for E. coli DNA gyrase inhibitors” value (E. coli DNA gyrase) does the source give for `c1ccncc1` [pyridine] here?
A: The value was 568.

Q: What about the “fluorescence, HTS screening of 50-compound library for Mtb DNA topoisomerase 1 inhibitors” value (Mtb DNA topoisomerase I) of the same molecule?
A: Its value is 1380.

Q: And the “fluorescence, HTS screening of 50-compound library for E. coli DNA topoisomerase 1 inhibitors” value [2]?
A: The value was 1339.

Q: And the “fluorescence, HTS screening of 50-compound library for DNA intercalators” value (supercoiled plasmid pAB1)?
A: Its value is 218.

Q: `Nc1ccc(S(N)(=O)=O)cc1` [sulfanilamide] was tested. Which “fluorescence … for E. coli DNA gyrase inhibitors” value (E. coli DNA gyrase) did it give?
A: Its value is 558.

Q: And the “fluorescence, HTS screening of 50-compound library for Mtb DNA topoisomerase 1 inhibitors” value (Mtb DNA topoisomerase I)?
A: The value was 1523.

Q: And the “fluorescence, HTS screening of 50-compound library for E. coli DNA topoisomerase 1 inhibitors” value [2]?
A: The value was 1426.

Q: `NC(N)=Nc1ccc(-c2ccc(-c3ccc(N=C(N)N)cc3Cl)o2)c(Cl)c1` [MMV688179] was tested. Which “result in words, pathogen box screen for E. coli DNA gyrase” value (E. coli DNA gyrase) did it give?
A: Its value is “inhibit E. coli DNA gyrase activities”.

Q: For `NCC(=O)O` [Glycine], which “fluorescence … for E. coli DNA gyrase inhibitors” value (E. coli DNA gyrase) is on record?
A: Its value is 644.

Q: And the “fluorescence, HTS screening of 50-compound library for Mtb DNA topoisomerase 1 inhibitors” value (Mtb DNA topoisomerase I)?
A: Its value is 1321.

Q: And the “fluorescence, HTS screening of 50-compound library for E. coli DNA topoisomerase 1 inhibitors” value [2]?
A: Its value is 1589.

Q: Which “hit call, gyrase HTS (FIG. 7)” value (E. coli DNA gyrase) does the source give for `CS[C@H]1SC[C@H]2C(=O)N(C)[C@@H](C(C)C)C(=O)OC[C@@H](NC(=O)c3cnc4ccccc4n3)C(=O)N[C@@H](C)C(=O)N(C)[C@@H]1C(=O)N(C)[C@@H](C(C)C)C(=O)OC[C@@H](NC(=O)c1cnc3ccccc3n1)C(=O)N[C@@H](C)C(=O)N2C` [echinomycin] here?
A: Its value is “hits”.

Q: And the “screening result in words (Table 2, gyrase HTS)” value (E. coli DNA gyrase; interpretation of Table 2)?
A: The value was “DNA intercalators”.

Q: What about the “fluorescence, HTS screening … (Table 6; vTopI)” value [1] of the same molecule?
A: The value was 1238.
